Laboratory results: US20090281047A1, “Compositions And Methods For Immunotherapy” (priority 2008, published 2009)

Key:
Lyme Disease = assay: Treatment of Lyme Disease (Example XII); assay type: in vivo, human; conditions: five individuals; 200 mg in 1 liter alkaline water pH 11 twice daily for three months
Experimental: (§1) Five individuals positive for Lyme Disease were administered a solution comprising 1 liter of Alkaline water prepared as described in Example XI and diluted with non-chlorinated drinking water to a pH of 11 mixed with 200 mg of columbianitin extracted from Lomatium Disectum twice daily for three months.

Epstein Barr virus = assay: Treatment of Epstein Barr (Example XIII); assay type: in vivo, human; conditions: thirty five individuals; 200 mg in 1 liter alkaline water pH 11 twice daily for three months
Experimental: as §1, with “Thirty five” for “Five”, “with Epstein Barr virus” for “positive for Lyme Disease”, “comprising,” for “comprising”, “Disectum,” for “Disectum”

candadiasis = assay: Treatment of candadiasis (Example XIV); assay type: in vivo, human; conditions: 25 individuals; 200 mg in 1 liter alkaline water pH 11 twice daily for three months
Experimental: (§2) 25 individuals with candadiasis were administered a solution comprising, 1 liter of Alkaline water prepared as described in Example XI and diluted with non-chlorinated drinking water to a pH of 11 mixed with 200 mg of columbianitin extracted from Lomatium Disectum, twice daily for three months.

[1] = system: Methicillin Resistant Staphylococcus aureus (MRSA); assay: Treatment of MRSA (Example XV); assay type: in vivo, human; conditions: three individuals; 200 mg in 1 liter alkaline water pH 11 twice daily for three months
Experimental: as §2, with “Three” for “25”, “suffering from MRSA” for “with candadiasis”

breast cancer = assay: Treatment of breast cancer patients (Example IX); assay type: in vivo, human
Source text: Forty-three of the patients in the study of Example VIII suffered from breast cancer. These forty-three were divided into four groups. One group of 7 was given the glycome solution of Example II; a group of five was given the glycome solution of Example II in combination with chemotherapy; a group of thirteen was given the glycome solution of Example II in combination with chemotherapy and Poly-MVA® (AMARC Enterprises, Inc., Spring Valley, Calif.) (blend of Palladium and alpha-lipoic Acid, Vitamins B1, B2 and B12, Formylmethionine, Acetyl Cystiene, and trace amounts of Molybdinum, Rhodium, and Ruthenium); and the remaining eighteen were given a combination of the glycome solution of Example II and Poly-MVA® (AMARC Enterprises, Inc., Spring Valley, Calif.) without chemotherapy. Patients receiving the glycome solution were given a solution containing three grams of the powder isolated in Example I a day intravenously for five days then six capsules containing a total of 3 g/day of para-hydroxyl-benzaldehyde-O-B-D-allopyranoside formulated according to Example IV and two capsules containing the formulation of Example V orally for two days, repeating for four weeks. They were then given six capsules containing a total of 3 g/day of para-hydroxyl-benzaldehyde-O-B-D-allopyranoside formulated according to Example IV and two capsules containing the formulation of Example V orally per day until they entered remission.

[2] = system: varying malignancies including neuroendocrine cancer, nasal adenocarcinoma, brain stem tumor, thymoma, and histiocytoma; assay: Treatment of dogs with varying malignancies (Example X); assay type: in vivo, dog; conditions: eight dogs; IV five days a week for three weeks, then 1 to 2 grams methacrylate coated para-hydroxyl-benzaldehyde-O-B-D-allopyranoside in food; some also acupuncture/alkaline water
Experimental: Eight dogs weighing between 60 and 80 pounds with varying malignancies including neuroendocrine cancer, nasal adenocarcinoma, brain stem tumor, thymoma, and histiocytoma were treated with 6 cc of the DMSO solution of Example II diluted in 200 cc saline administered intravenously five days a week for three weeks. The dogs were then given 1 to 2 grams of methacrylate coated para-hydroxyl-benzaldehyde-O-B-D-allopyranoside in their food seven days a week until they entered remission. Six of the dogs also received acupuncture and one received acupuncture and alkaline water.

Compound	Lyme disease test at the end of three months (Lyme Disease)	Epstein Barr virus test at the end of three months (Epstein Barr virus)	skin infections at the end of three months (candadiasis)	vaginal infections at the end of three months (candadiasis)	clinical outcome at the end of three months [1]	breast cancer patients survived for at least two years, overall (breast cancer; all forty-three breast cancer patients, all four treatment groups) [%]	breast cancer patients survived (breast cancer; group of eighteen, combination with Poly-MVA without chemotherapy)	breast cancer patients survived (breast cancer; group of five, combination with chemotherapy) [%]	tumor response [2]
CC(C)(O)[C@@H]1Cc2c(ccc3ccc(=O)oc23)O1 [columbianitin]	all five individuals tested negative	all thirty-five individuals tested negative	resolved	remained the same	all three individuals improved considerably	–	–	–	–
O=Cc1ccc(O[C@@H]2O[C@H](CO)[C@@H](O)[C@@H](O)[C@H]2O)cc1 [para-hydroxyl-benzaldehyde-O-B-D-allopyranoside]	–	–	–	–	–	79	seventy-eight	100	significant reduction or elimination of the tumor
